Reference: the supplement of paper PMC10307832

Tests used:
Assay in all cases: relative viability (nuclei count vs DMSO), 5 days (fraction); higher = more cells survive
Elesclomol + Crizotinib = compound: CN(NC(=O)CC(=O)NN(C)C(=S)c1ccccc1)C(=S)c1ccccc1 [Elesclomol] + C[C@@H](Oc1cc(-c2cnn(C3CCNCC3)c2)cnc1N)c1c(Cl)ccc(F)c1Cl [Crizotinib] (partner 1 µM)
Summary of the method: (§1)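 Relative viability equals treated-well nuclei counts divided by vehicle-well nuclei counts. Counts came from 4× images of lung cancer cell lines grown in 1536-well plates for 5 days after pin-tool dosing on the day after seeding. Dosing used one drug alone or a fixed anchor-drug dose plus five library-drug doses (not always all listed) in √10 steps, and values are medians of duplicate plates.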

Elesclomol + Linsitinib = compound: CN(NC(=O)CC(=O)NN(C)C(=S)c1ccccc1)C(=S)c1ccccc1 [Elesclomol] + C[C@]1(O)C[C@@H](c2nc(-c3ccc4ccc(-c5ccccc5)nc4c3)c3c(N)nccn32)C1 [Linsitinib] (partner 1 µM)
Summary of the method: as §1

Elesclomol + Vorinostat = compound: CN(NC(=O)CC(=O)NN(C)C(=S)c1ccccc1)C(=S)c1ccccc1 [Elesclomol] + O=C(CCCCCCC(=O)Nc1ccccc1)NO [Vorinostat] (partner 1 µM)
Summary of the method: as §1

Elesclomol = compound: CN(NC(=O)CC(=O)NN(C)C(=S)c1ccccc1)C(=S)c1ccccc1 [Elesclomol]
Summary of the method: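 Nuclei counted with MetaXpress define viability as the ratio of treated to vehicle wells, given as a median across plates. The lung cancer cell lines were in 1536-well plates, pinned with five √10-spaced library-drug doses and imaged at 4× after 5 days and Hoechst staining. Plates passed with control CV below 25% and at least one doubling.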

Elesclomol + Luminespib = compound: CN(NC(=O)CC(=O)NN(C)C(=S)c1ccccc1)C(=S)c1ccccc1 [Elesclomol] + CCNC(=O)c1noc(-c2cc(C(C)C)c(O)cc2O)c1-c1ccc(CN2CCOCC2)cc1 [Luminespib] (partner 0.01 µM)
Summary of the method: as §1

| Cell Line | relative viability (Elesclomol + Crizotinib; first compound 0.003162 µM) | relative viability (Elesclomol + Crizotinib; first compound 0.01 µM) | relative viability (Elesclomol + Crizotinib; first compound 0.03162 µM) | relative viability (Elesclomol + Crizotinib; first compound 0.1 µM) | relative viability (Elesclomol + Linsitinib; first compound 0.003162 µM) | relative viability (Elesclomol + Linsitinib; first compound 0.01 µM) | relative viability (Elesclomol + Linsitinib; first compound 0.03162 µM) | relative viability (Elesclomol + Linsitinib; first compound 0.1 µM) | relative viability (Elesclomol + Vorinostat; first compound 0.003162 µM) | relative viability (Elesclomol + Vorinostat; first compound 0.01 µM) | relative viability (Elesclomol + Vorinostat; first compound 0.03162 µM) | relative viability (Elesclomol + Vorinostat; first compound 0.1 µM) | relative viability (Elesclomol; 0.003162 µM) | relative viability (Elesclomol; 0.01 µM) | relative viability (Elesclomol; 0.03162 µM) | relative viability (Elesclomol; 0.1 µM) | relative viability (Elesclomol + Luminespib; first compound 0.003162 µM) | relative viability (Elesclomol + Luminespib; first compound 0.01 µM) | relative viability (Elesclomol + Luminespib; first compound 0.03162 µM) | relative viability (Elesclomol + Luminespib; first compound 0.1 µM) |
| --- | --- | --- | --- | --- | --- | --- | --- | --- | --- | --- | --- | --- | --- | --- | --- | --- | --- | --- | --- | --- |
| HCC-78 | 0.356 | 0.325 | 0.326 | 0.336 | 0.425 | 0.521 | 0.497 | 0.408 | 0.46 | 0.38 | 0.36 | 0.553 | 0.87 | 1 | 0.861 | 0.926 | – | – | – | – |
| HCC-366 | 0.566 | 0.616 | 0.112 | 0.0109 | 0.689 | 0.663 | 0.622 | 0.0082 | 0.371 | 0.228 | 0.173 | 0.0207 | 1.04 | 1.08 | 0.924 | 0.202 | – | – | – | – |
| HCC-827 | 0.965 | 0.94 | 0.96 | 0.675 | 0.959 | 0.851 | 1.03 | 0.707 | 0.759 | 0.777 | 0.742 | 0.767 | 1.05 | 1.02 | 1.02 | 1 | 0.586 | 0.54 | 0.579 | 0.473 |
| HOP-62 | 0.952 | 0.916 | 0.919 | 0.256 | 0.909 | 0.94 | 0.994 | 0.184 | 0.659 | 0.469 | 0.477 | 0.136 | 1.01 | 0.83 | 0.89 | 0.299 | 0.877 | 0.892 | 0.962 | 0.554 |
| IA-LM | 0.746 | 0.343 | 0.0493 | 0.0241 | 0.47 | 0.265 | 0.134 | 0.022 | 0.863 | 0.858 | 0.999 | 0.847 | 0.855 | 0.374 | 0.0911 | 0.0299 | – | – | – | – |
| LC-2-ad | 0.423 | 0.251 | 0.194 | 0.238 | 0.91 | 0.761 | 0.117 | 0.112 | 0.642 | 0.608 | 0.24 | 0.169 | 0.963 | 0.568 | 0.241 | 0.19 | 0.497 | 0.47 | 0.33 | 0.265 |
| LCLC-97TM1 | 0.283 | 0.253 | 0.319 | 0.0642 | 0.175 | 0.16 | 0.141 | 0.116 | 0.724 | 0.283 | 0.707 | 0.0661 | 0.735 | 0.844 | 0.738 | 0.0887 | 0.791 | 0.877 | 0.781 | 0.247 |
| LCLC-103H | 0.948 | 0.937 | 0.993 | 1.02 | 1.11 | 1.02 | 1.01 | 1.07 | 0.82 | 0.496 | 0.877 | 0.568 | 1 | 0.856 | 0.993 | 0.842 | 0.903 | 0.734 | 1.01 | 0.435 |
| LK-2 | 0.224 | 0.213 | 0.124 | 0.106 | 0.428 | 0.21 | 0.0808 | 0.0624 | 0.395 | 0.232 | 0.167 | 0.121 | 0.796 | 0.715 | 0.507 | 0.157 | 0.197 | 0.172 | 0.178 | 0.136 |
| LOU-NH91 | 0.735 | 0.706 | 0.616 | 0.57 | 0.925 | 0.856 | 0.703 | 0.542 | 1.02 | 0.826 | 0.782 | 0.66 | 1.06 | 0.856 | 0.798 | 0.764 | 0.334 | 0.339 | 0.33 | 0.28 |
| NCI-H522 | – | – | – | – | – | – | – | – | 0.927 | 0.888 | 0.862 | 0.604 | 1.03 | 0.877 | 0.801 | 0.53 | 0.958 | 1.02 | 1.06 | 0.625 |
| NCI-H1395 | – | – | – | – | 0.857 | 0.347 | 0.716 | 0.26 | 0.814 | 0.46 | 0.245 | 0.215 | 0.972 | 0.475 | 0.279 | 0.265 | 0.57 | 0.498 | 0.308 | 0.292 |
| NCI-H1563 | 0.649 | 0.623 | 0.502 | 0.453 | 0.817 | 0.705 | 0.632 | 0.468 | – | – | – | – | 0.786 | 0.675 | 0.651 | 0.542 | 0.518 | 0.472 | 0.471 | 0.432 |
| NCI-H1650 | 0.325 | 0.221 | 0.255 | 0.122 | – | – | – | – | 0.3 | 0.22 | 0.146 | 0.11 | 0.394 | 0.281 | 0.16 | 0.114 | 0.156 | 0.206 | 0.201 | 0.148 |
| NCI-H1703 | 0.151 | 0.137 | 0.0928 | 0.0853 | 0.179 | 0.122 | 0.0723 | 0.0652 | – | – | – | – | 0.273 | 0.173 | 0.0832 | 0.101 | – | – | – | – |
| NCI-H1792 | 0.939 | 0.945 | 1 | 1.01 | 0.506 | 0.387 | 0.584 | 0.577 | – | – | – | – | 0.916 | 0.51 | 0.762 | 0.513 | 0.385 | 0.354 | 0.431 | 0.329 |
| NCI-H1793 | – | – | – | – | 0.901 | 0.733 | 0.927 | 0.25 | 0.808 | 0.623 | 0.613 | 0.117 | 0.893 | 0.635 | 0.892 | 0.251 | 0.13 | 0.148 | 0.158 | 0.133 |
| NCI-H2170 | 1.26 | 0.956 | 1.17 | 0.653 | – | – | – | – | 0.808 | 0.683 | 0.777 | 0.408 | 0.967 | 0.938 | 0.986 | 0.657 | 0.735 | 0.624 | 0.646 | 0.435 |
| SW 900 | – | – | – | – | – | – | – | – | 0.522 | 0.345 | 0.234 | 0.111 | 0.871 | 0.701 | 0.251 | 0.0829 | 0.173 | 0.132 | 0.17 | 0.139 |
